# Results from patent US11760744B2, “Fused ring compounds” (Genentech, Inc., priority 2018, dated 2023).
# Columns and labels:
# K-Ras G12C [1] = biological target: T1, K-Ras G12C (Homo sapiens, UniProt P01116, G12C); assay: Western blot assay for in cell alkylation of K-Ras G12C (HCC1171 cells); type: cell-based; design: endogenous in cells; host or cells: HCC1171; conditions: 18 hours at 37° C., 7 point dose response
# Experimental: Western Blot Assay for in Cell Alkylation of K-Ras G12C
# HCC1171 cells were maintained in RPMI1640 supplemented with 10% FBS. Cells were plated in a 96-well plate at 20,000 cells/well and the following day compounds were added to the cells. After 18 hours at 37° C., cells were lysed in RIPA buffer (Sigma R0278) with 0.5% SDS and protease/phosphatase inhibitor cocktail. After through mixing to enable complete lysis, the lysates were cleared by centrifugation before 20 μl was transferred from each well and combined with loading buffer and reducing agent. After heating for 10 minutes at 95° C., 15 μl of each sample was loaded onto a 4-20% Tris-Glycine gel and electrophoresed at 110V for 165 minutes in SDS-PAGE running buffer. Gels were transferred to a nitrocellulose membrane, blocked for 1 hour and stained overnight at 4° C. with primary antibody against K-Ras (polyclonal Proteintech 12063-1-AP). The membrane was then washed thoroughly and counterstained with anti-rabbit IRDye 800CW (LI-COR 926-32211) for one hour at room temperature. After final washes, the membrane was imaged on a LI-COR Odyssey CLx at medium resolution. Alkylated K-Ras was visible by an electrophoretic shift from unmodified K-Ras. To quantify this affect, the LICOR software was used to draw a rectangle over alkylated and unalkylated bands for each well and measured the total fluorescent intensity (FI) in each of these bands. The following formula was then used to calculate % alkylation: FI(alkylated)/(FI(alkylated)+FI(unalkylated))*100 for each well.
# A 7 point dose response curve was used to determine the IC50 for each compound. Cell alkylation data are presented below in Table 2.
# Target sequence in this assay (P01116 1-188 isoform P01116-2 G12C): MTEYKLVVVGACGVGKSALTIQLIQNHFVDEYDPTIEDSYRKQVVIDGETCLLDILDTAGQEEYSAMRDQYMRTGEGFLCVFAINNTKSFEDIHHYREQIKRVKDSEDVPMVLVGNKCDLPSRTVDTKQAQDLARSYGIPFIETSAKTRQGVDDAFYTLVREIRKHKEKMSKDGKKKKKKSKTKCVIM
# K-Ras G12C [2] = biological target: T1, K-Ras G12C; assay: K-Ras G12C, SOS1, Raf RBD HTRF assay for inhibition of GTP exchange; type: biochemical; design: K-Ras G12C (residues 2-188) and SOS1 (residues 564-1049) had N-terminal 6-His; made in house; host or cells: E. coli; conditions: 18 hours preincubation with K-Ras G12C at room temperature; SOS1-mediated GTP exchange
# Experimental: K-Ras G12C, SOS1, Raf RBD Homogeneous Time Resolved Fluorescence (HTRF) Assay for Inhibition of GTP Exchange
# After 18 hours at room temperature, the SOS1 GTP exchange factor (1.67 nM during exchange, 1.25 nM final) was added to initiate nucleotide exchange to GTP (200 μM during exchange, 150 μM final). The level of GTP exchange was assessed by addition of a Ras binding domain derived from C-Raf and the HTRF detection antibodies Tb-anti-FLAG and D2-anti-his (Cis-Bio) at 50 nM, 1 nM and 12.5 nM, respectively. After 2 hours, the ratio of 665 nm to 615 nm emission with 320 nm excitation was measured on an Envision plate reader (Perkin Elmer).
# The final reaction volume was 20 μl in a ProxiPlate-384F Plus (Perkin Elmer), in buffer containing 20 mM HEPES, 150 mM NaCl, 1 mM MgCl2, 0.1% BSA, 0.03% Tween-20 and 1 mM DTT. […] HTRF data are presented below in Table 2.
# Target sequence in this assay (P01116 2-188 isoform P01116-2 G12C): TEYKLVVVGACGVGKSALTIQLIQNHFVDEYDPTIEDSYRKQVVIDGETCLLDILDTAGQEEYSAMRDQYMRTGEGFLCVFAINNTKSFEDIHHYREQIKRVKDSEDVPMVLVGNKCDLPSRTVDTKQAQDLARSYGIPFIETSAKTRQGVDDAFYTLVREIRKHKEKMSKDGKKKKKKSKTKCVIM
compound,measurement,setting,value
"C=C(F)C(=O)N1CCN(c2nc(OC[C@@H]3C[C@@H](F)CN3C)nc3c2C[C@H](C)[C@@H](c2c(F)c(N)cc(C)c2C(F)(F)F)C3)C[C@@H]1CC#N (single isomer, unassigned) [Example 38d]",EC50,K-Ras G12C [1],1000 nM
same,IC50,K-Ras G12C [2],1700 nM
"C=CC(=O)N1CCN(c2ncnc3c2C[C@@H](C)[C@H](c2nc(N)ccc2C(F)(F)F)C3)CC1 (single isomer, unassigned) [Example 42b]",EC50,K-Ras G12C [1],360 nM
same,IC50,K-Ras G12C [2],67 nM
"CN1CCC[C@H]1COc1nc2c(c(N3CCN(C(=O)/C=C/CF)C(CC#N)C3)n1)CCC(c1cc(O)cc3ccccc13)C2 (mixture of isomers) [Example 62a, 2-(1-((E)-4-fluorobut-2-enoyl)-4-(7-(3-hydroxynaphthalen-1-yl)-2-(((S)-1-methylpyrrolidin-2-yl)methoxy)-5,6,7,8-tetrahydroquinazolin-4-yl)piperazin-2-yl)acetonitrile]",EC50,K-Ras G12C [1],14 nM
same,IC50,K-Ras G12C [2],18 nM
"C=CC(=O)N1CCN(c2nc(OC[C@@H]3CCCN3C)nc3c2CC[C@@H](c2cc(O)cc4ccccc24)C3)C[C@@H]1CC#N (single isomer, unassigned) [Example 58d]",EC50,K-Ras G12C [1],6.3 nM
same,IC50,K-Ras G12C [2],24 nM
"C=CC(=O)N1CCN(c2ncnc3c2C[C@H](C)[C@H](c2nc(N)cc(C)c2C(F)(F)F)C3)CC1 (single isomer, unassigned) [Example 1b]",EC50,K-Ras G12C [1],10000 nM
same,IC50,K-Ras G12C [2],> 50000 nM
"C=CC(=O)N1CCN(c2nc(OC[C@@H]3CCCN3C)nc3c2C[C@H](C)[C@@H](c2cccc4c2CCC4)C3)C[C@H]1CC#N (single isomer, unassigned) [Example 35a]",EC50,K-Ras G12C [1],550 nM
same,IC50,K-Ras G12C [2],190 nM
"C#CC[C@@H]1CN(c2nc(OC[C@@H]3CCCN3C)nc3c2C[C@H](C)[C@@H](c2cccc4c2CCC4)C3)CCN1C(=O)C=C (single isomer, unassigned) [Example 40c]",EC50,K-Ras G12C [1],1000 nM
same,IC50,K-Ras G12C [2],1200 nM
"C=CC(=O)N1CCN(c2nc(OC[C@@H]3C[C@@H](F)CN3C)nc3c2CC[C@@H](c2cc(O)cc4ccccc24)C3)[C@@H](C)C1 (single isomer, unassigned) [Example 31b]",EC50,K-Ras G12C [1],2000 nM
same,IC50,K-Ras G12C [2],250 nM
"C=CC(=O)N1CCN(c2ncnc3c2CC[C@H](c2nc(N)cc4ccccc24)C3)CC1 (single isomer, unassigned) [Example 3b]",EC50,K-Ras G12C [1],5500 nM
same,IC50,K-Ras G12C [2],710 nM
"C#CC[C@H]1CN(c2nc(OC[C@@H]3CCCN3C)nc3c2C[C@@H](C)[C@H](c2cccc4c2CCC4)C3)CCN1C(=O)C=C (single isomer, unassigned) [Example 40a]",EC50,K-Ras G12C [1],100 nM
same,IC50,K-Ras G12C [2],< 10 nM
"C=CC(=O)N1CCN(c2nc(OC[C@@H]3CCCN3C)nc3c2CCC2(CCCCC2)C3)CC1 [Example 25a, (S)-1-(4-(2′-((1-methylpyrrolidin-2-yl)methoxy)-5′,8′-dihydro-6′H-spiro[cyclohexane-1,7′-quinazolin]-4′-yl)piperazin-1-yl)prop-2-en-1-one]",EC50,K-Ras G12C [1],1000 nM
same,IC50,K-Ras G12C [2],5400 nM
"C=CC(=O)N1CCN(c2nc(OC[C@@H]3COC(=O)N3C)nc3c2CC[C@H](c2cc(O)cc4ccccc24)C3)[C@@H](C)C1 (single isomer, unassigned) [Example 57c]",EC50,K-Ras G12C [1],830 nM
same,IC50,K-Ras G12C [2],53 nM
"C=CC(=O)N1CCN(c2ncnc3c2CCC(c2nc(N)cc(C)c2C(F)(F)F)C3)CC1 (stereo not shown) [Example 26, 1-[4-[7-[6-amino-4-methyl-3-(trifluoromethyl)-2-pyridyl]-5,6,7,8-tetrahydroquinazolin-4-yl]piperazin-1-yl]prop-2-en-1-one]",EC50,K-Ras G12C [1],2200 nM
same,IC50,K-Ras G12C [2],270 nM
"C=C(F)C(=O)N1CCN(c2nc(OC[C@@H]3CCCN3C)nc3c2CC[C@H](c2cc(O)cc4ccccc24)C3)C[C@H]1CC#N (single isomer, unassigned) [Example 61b]",EC50,K-Ras G12C [1],2800 nM
same,IC50,K-Ras G12C [2],640 nM
"COc1ccc(CN(Cc2ccc(OC)cc2)c2cc(C)c(I)c([C@H]3Cc4nc(OC[C@@H]5CCCN5C)nc(N5CCN(C(=O)OC(C)(C)C)C[C@@H]5C)c4C[C@@H]3C)c2F)cc1 (single isomer, unassigned) [Example 14b]",EC50,K-Ras G12C [1],1000 nM
same,IC50,K-Ras G12C [2],> 50000 nM
"C=CC(=O)N1CCN(c2nc(OCC[C@@H]3CCCN3C)nc3c2CCC(c2cc(O)cc4ccccc24)C3)CC1 (stereo partly drawn) [Example 52a, 1-(4-(7-(3-hydroxynaphthalen-1-yl)-2-(2-((S)-1-methylpyrrolidin-2-yl)ethoxy)-5,6,7,8-tetrahydroquinazolin-4-yl)piperazin-1-yl)prop-2-en-1-one]",EC50,K-Ras G12C [1],990 nM
same,IC50,K-Ras G12C [2],51 nM
"C=CC(=O)N1CCN(c2nc(OC[C@@H]3CCCN3C)nc3c2CC[C@H](c2cc(O)cc4ccccc24)C3)C[C@@H]1CC#N (single isomer, unassigned) [Example 58b]",EC50,K-Ras G12C [1],1900 nM
same,IC50,K-Ras G12C [2],130 nM
"C=CC(=O)N1CCN(c2ncnc3c2C[C@H](C)[C@@H](c2c(C)ccc4[nH]ncc24)C3)CC1 (single isomer, unassigned) [Example 15b]",EC50,K-Ras G12C [1],30000 nM
same,IC50,K-Ras G12C [2],8600 nM
"C=CC(=O)N1C[C@H](C)N(c2nc(OC[C@@H]3CCCN3C)nc3c2C[C@@H](C)[C@H](c2cc(O)cc4ccccc24)C3)[C@@H](C)C1 (single isomer, unassigned) [Example 32a]",EC50,K-Ras G12C [1],120 nM
same,IC50,K-Ras G12C [2],< 10 nM
"CN1CCC[C@H]1COc1nc2c(c(N3CCN(C(=O)/C=C/CF)[C@@H](CC#N)C3)n1)CC[C@H](c1cc(O)cc3ccccc13)C2 (single isomer, unassigned) [Example 62c]",EC50,K-Ras G12C [1],1000 nM
same,IC50,K-Ras G12C [2],73 nM
"C=CC(=O)Oc1cc(C2CCc3c(nc(OC[C@@H]4CCCN4C)nc3N3CCN(C(=O)C=C)CC3)C2)c2ccccc2c1 (stereo partly drawn) [Example 50a, 4-(4-(4-acryloylpiperazin-1-yl)-2-(((S)-1-methylpyrrolidin-2-yl)methoxy)-5,6,7,8-tetrahydroquinazolin-7-yl)naphthalen-2-yl acrylate]",EC50,K-Ras G12C [1],170 nM
same,IC50,K-Ras G12C [2],160 nM
"C=CC(=O)N1CCN(c2ncnc3c2CC[C@H](c2c(F)c(N)cc(F)c2C(F)(F)F)C3)CC1 (single isomer, unassigned) [Example 13b]",EC50,K-Ras G12C [1],690 nM
same,IC50,K-Ras G12C [2],84 nM
"C=CC(=O)N1CCN(c2nc(OC[C@@H]3CCCN3C)nc3c2CCC(c2cc(O)cc4ccccc24)C3)CC1CC#N (stereo partly drawn) [Example 58a, 2-(1-acryloyl-4-(7-(3-hydroxynaphthalen-1-yl)-2-(((S)-1-methylpyrrolidin-2-yl)methoxy)-5,6,7,8-tetrahydroquinazolin-4-yl)piperazin-2-yl)acetonitrile]",EC50,K-Ras G12C [1],10 nM
same,IC50,K-Ras G12C [2],28 nM
"C=C(F)C(=O)N1CCN(c2nc(OC[C@@H]3CCCN3C)nc3c2CCC(c2cccc4ccccc24)C3)CC1CC#N (single isomer, unassigned) [Example 47c]",EC50,K-Ras G12C [1],450 nM
same,IC50,K-Ras G12C [2],130 nM
"C=C(F)C(=O)N1CCN(c2nc(OC[C@@H]3CCCN3C)nc3c2CCC(c2cccc4ccccc24)C3)CC1CC#N (single isomer, unassigned) [Example 47a]",EC50,K-Ras G12C [1],530 nM
same,IC50,K-Ras G12C [2],150 nM
"C=CC(=O)N1CCN(c2nc(OC[C@@H]3CCCN3C)nc3c2CCC(c2cc(O)cc4ccccc24)C3)CC1 (stereo partly drawn) [Example 49a, 1-[4-[7-(3-hydroxy-1-naphthyl)-2-[[(2S)-1-methylpyrrolidin-2-yl]methoxy]-5,6,7,8-tetrahydroquinazolin-4-yl]piperazin-1-yl]prop-2-en-1-one]",EC50,K-Ras G12C [1],170 nM
same,IC50,K-Ras G12C [2],23 nM
"C=CC(=O)N1CCN(c2nc(OC[C@@H]3CCCN3C)nc3c2CCC(c2cc(O)cc4ccccc24)C3)[C@@H](CO)C1 (single isomer, unassigned) [Example 29b]",EC50,K-Ras G12C [1],330 nM
same,IC50,K-Ras G12C [2],< 10 nM
"C=C(F)C(=O)N1CCN(c2nc(OC[C@@H]3C[C@@H](F)CN3C)nc3c2C[C@H](C)[C@@H](c2c(F)c(N)cc(C)c2C(F)(F)F)C3)C[C@H]1CC#N (single isomer, unassigned) [Example 38a]",EC50,K-Ras G12C [1],1000 nM
same,IC50,K-Ras G12C [2],3600 nM
"C=CC(=O)N1CCN(c2nc(OC[C@@H]3CCCN3C)nc3c2C[C@H](C)[C@@H](c2c(C(F)(F)F)ccc(N)c2F)C3)[C@@H](C)C1 (single isomer, unassigned) [Example 23a]",EC50,K-Ras G12C [1],1000 nM
same,IC50,K-Ras G12C [2],720 nM
